# Test results taken from US11466017B2, “Heterocyclic inhibitors of PTPN11” (priority 2011, dated 2022).
# System: BT474 human breast carcinomas cell line
# Test: In vivo tumor model, BT474 (HER2+) xenograft
# Conditions: BT474 xenograft in CB-17/SCID mice, 100 mg/kg once per day oral gavage, 5 days on/2 days off, 4 weeks
# From the text: Xenografts were initiated with BT474 human breast carcinomas cell line and maintained by serial subcutaneous transplantation in CB-17/SCID mice (Charles River). On the day of tumor implant, each test mouse received a 1 mm^3 BT474 fragment implanted subcutaneously in the right flank, and tumor growth was monitored as the average size approached the target range of 100 to 150 mm3. About three weeks post-implantation, the animals were randomized and grouped based on tumor volume and mouse body weight. […] Tumors were measured in two dimensions using calipers, and volume was calculated using the formula: Tumor Volume (mm^3)=w^2× ½.
compound,measurement,value
"CC1(N)CCN(c2cnc3c(-c4cccc(Cl)c4Cl)n[nH]c3n2)CC1 [Example 1, 1-(3-(2,3-dichlorophenyl)-1H-pyrazolo[3,4-b]pyrazin-6-yl)-4-methylpiperidin-4-amine]",tolerability (body weight),tolerated dose
same,tumor growth (tumor volume),significant suppression of tumor growth
